Test results reported in patent US10393633B2, “Sample fixation and stabilisation” (RNASSIST LTD., priority 2013, dated 2019).
Where two headings read alike, the source gives them in different places.

Experiments:
[1] = Solid or liquid state of the mixtures at 24° C. / 100° C.; assay type: physicochemical; settings: for Room temperature (24° C.) DES liquid on mixing with Choline chloride: 1:2 mol:mol proportion
[2] = tested on: RNA in rat tissue; assay: RNA stabilisation in animal tissue by DES mixtures, 37° C. 18 hours, RNA yield and gel RNA quality (Example 3, Tables 1 and 2)
Method: To 400 μl of the following DES mixtures in a 2 ml polypropylene tube was added 5-15 mg of rat tissue (frozen tissue stock), following a 20 minute fixation step the sample was incubated at 37° C. for 18 hours prior to RNA extraction/purification using a RNeasy Micro kit (Cat. No. 74004, Qiagen, Germany). Whether the DES mixture was a solid or liquid at room temperature, the RNA yield following extraction and the RNA quality on a scale of 1-10 (with 0 indicating no stabilisation and 10 indicating no degradation, compared with the RNA quality of immediately extracted RNA from a fresh rat liver tissue sample=10).

[3] = tested on: RNA of guanidine lysate; assay: RNA yields from Guanidine/Choline chloride:Trifluoroacetamide mixtures in the absence of ethanol for binding (Example 30, Table 11); design: species or system mouse; settings: no ethanol
[4] = 0 highly degraded to 10 highest quality, 18S/28S rRNA on agarose gel, 37° C. 18 hours
[5] = Table 1, solid or liquid at room temperature

| SMILES | Room temperature (24° C.) DES liquid on mixing with Choline chloride [1] | other results |
| --- | --- | --- |
| CN1CCN(C)C1=O [1,3-Dimethyl-2-imidazolidone] | could not be prepared |  |
| c1ccc(Cn2ccnc2)cc1 [1-Benzylimidazole] | could not be prepared |  |
| CCN1CCCC1=O [1-Ethyl-2-pyrrol] | could not be prepared |  |
| O=CN1CCOCC1 [4-Formyl morpholine] | could not be prepared |  |
| CC(=O)CCC(C)=O [Acetonyl acetone] | could not be prepared |  |
| N.N.N.O=P(O)(O)O [Ammonium phosphate] |  | Formation of room temperature DES liquids by ammonium salts [1]: not capable of forming room temperature DES liquids |
| C[N+](C)(C)CC(=O)O [Betaine:Water (Sat'd), Betaine, reference compound] |  | RNA Quality 0-10 [2, 4]: 0; Liquid at 24° C. [1, 5]: Yes |
| C[N+](C)(C)CCO.[Cl-] [Choline chloride:Water (6M), Choline chloride, reference compound] |  | RNA Quality 0-10 [2]: 3; Liquid at 24° C. [1]: Saturated |
| O=C1OCCO1 [Ethylene carbonate] | could not be prepared |  |
| CCn1ccnc1 [N-Ethylimidazole] | could not be prepared |  |
| NC(=O)C(N)=O [Oxamide] | could not be prepared |  |
| CC(C)(C)C(N)=O [Pivalamide] | could not be prepared |  |
| O=C(O)[C@@H]1CCCN1 [Proline] | could not be prepared |  |
| NC(=O)C(F)(F)F [Trifluoroacetamide] |  | RNA yield compared with Choline chloride:Trifluoroacetamide dissolved in Buffer RLT (1:1 wt:wt) [3]: 15% |
| NC(N)=O [Water:Urea (5M), Urea, reference compound] |  | RNA Quality 0-10 [2, 4]: 0; Liquid at 24° C. [1, 5]: Saturated |
